Assay results: patent publication US20240415791A1, “Therapeutic methods and compositions for treating cancer using devimistat and a fatty acid oxidation inhibitor, a tyrosine kinase inhibitor, a glutaminase inhibitor, and/or a glycolysis inhibitor” (Cornerstone Pharmaceuticals, Inc., priority 2021, published 2024)
Read-outs that look alike come from different tables or passages of the source.

How the values were obtained:
Assay type in all cases: cell-based, human
[1] = tested on: AsPC1 cells; experiment: Devimistat-induced cell death (ATP after recovery) in AsPC1 cells; details: for sensitization to devimistat-induced cell death, agent combined with devimistat: AsPC1, nutrient-free CBS2, treatment followed by recovery in serum-free RPMI; for Devimistat synergy: devimistat-induced cell death, no exogenous carbon, 15 hours treatment then recovery
Procedure: Cells were plated at 80% confluency in complete RPMI in black, clear bottom 96-well plates or 35-mm dishes for ATP, protein and glycogen analysis, or glass coverslips for fluorescence visualization. […] Prior to drug treatment, cells were incubated in a nutrient-free carbonate buffered salt solution (CBS2) for 3 hours. Drug treatments were then carried out in CBS2 with addition of nutrient sources and/or chemical agents as described in the Examples and Figures.
(§1) LOGIC: High throughput, plate reader assays for cell death essentially always ultimately depend on metabolic activity of cells to identify viability, directly or indirectly. Thus, strong inhibition of metabolic activity by anti-metabolism agents like those described herein can confound cell death analysis by such assays. […] The inventors thus used a recovery-based assay wherein cells are treated with anti-metabolic agents under conditions where mitochondrial metabolism is (or becomes) limiting on viability. After experimental treatment, drug and media are removed and cells are allowed to recover in serum-free RPMI. RPMI provides high levels of glucose in support of glycolytic ATP generation (independently of mitochondrial function), allowing viable cells to recover ATP levels that are ultimately measured in the plate assay to score cell viability.
Survival is assessed by conventional luminescence measurement of ATP levels after this recovery.
TECHNICAL DETAILS: Immediately after drug treatments, acute ATP levels of cells in black, clear bottom 96-well plates were measured using the CellTiter-Glo® Luminescent Cell Viability Assay (catalog #G775B) following Promega (Madison, WI) protocols. […] After this recovery period ATP levels were measured using the CellTiter-Glo® Luminescent Cell Viability Assay as described above.
Survival is assessed by conventional luminescence measurement of ATP levels after this recovery. See the Methods section above for a detailed description of this assay and its validation.

[2] = tested on: AsPC1 cells; experiment: Acute ATP synthesis rescue by exogenous carbon sources in AsPC1 cells treated with devimistat and GPi; details: for inhibition of oleic acid (OA)-driven acute ATP synthesis / OA rescue / OA rescue blockade: 50 μM oleic acid; for OA rescue blockade: acute ATP synthesis, 50 μM GPi
[3] = tested on: AsPC1 cells; experiment: Glycogen content in AsPC1 cells; details: AsPC1, CBS2, 3 hours
Procedure: (§2) Glycogen was quantified using the Glycogen Assay Kit II (colorimetric) from AbCam (ab169558) according to manufacturer's instructions. Briefly, approximately 2×10^6 cells were washed with ice-cold PBS and collected via scraping in 300 μL ice-cold ddH2O. Cells were immediately sonicated on ice for 5× […] pulses with a probe sonicator (Misonix Inc, model XL2000), then heated to 80° C. for 10 min. Samples were stored O/N at −20° C., then thawed, centrifuged at 12,000×g for 10 min and the supernatants collected for glycogen hydrolysis and quantification according to manufacturer's instructions.
C. […] Cells were treated in CBS2 for 3 hours with 30 μM devimistat or mock treated (FIG. 2C, left), or treated for 3 hours with the indicated devimistat doses (FIG. 2C, right).
(§3) D. Effects of anti-metabolism agents on glycogen consumption in PANC1 and AsPC1 cells. […] Glycogen content was measured in cell lysates (see Methods, above) and the results are presented in the left and middle graphs in FIG. 3D (note the different vertical scales for PANC1 and AsPC1 plots).

[4] = tested on: PANC1 cells; experiment: Devimistat-induced cell death (ATP after recovery) in PANC1 cells; details: PANC1, nutrient-free CBS2, treatment followed by recovery in serum-free RPMI
Procedure: Cells were plated at 80% confluency in complete RPMI in black, clear bottom 96-well plates or 35-mm dishes for ATP, protein and glycogen analysis, or glass coverslips for fluorescence visualization. To create low nutritional conditions, cells were seeded in complete media, after 24 hours cells were transferred to serum free RPMI for 18-24 hours. Prior to drug treatment, cells were incubated in a nutrient-free carbonate buffered salt solution (CBS2) for 3 hours. Drug treatments were then carried out in CBS2 with addition of nutrient sources and/or chemical agents as described in the Examples and Figures.
as §1, with “cell viability. Under these conditions, cells that are committed to execution of cell death by the experimental treatment score as dead and cells that have not committed to cell death recover ATP levels and score as viable.” for “cell viability.”
Specifically, after exposure to the treatments indicated, cells are allowed to recover ([…]) in RPMI without serum. Survival is assessed by conventional luminescence measurement of ATP levels after this recovery.
TECHNICAL DETAILS: Immediately after drug treatments, acute ATP levels of cells in black, clear bottom 96-well plates were measured using the CellTiter-Glo® Luminescent Cell Viability Assay (catalog #G775B) following Promega (Madison, WI) protocols. To assess cell viability, after drug treatments, drug/agent-containing medium was replaced with serum-free RPMI and cells were incubated for an additional 17-24 hours to allow recovery of viable cells, without additional cell division. After this recovery period ATP levels were measured using the CellTiter-Glo® Luminescent Cell Viability Assay as described above.
A. Exogenous glucose protects from devimistat-induced cell death. Four different cell lines were exposed for 15 hours (PANC1, AsPC1, H460) or 8 hours (PC3) to the indicated range of devimistat doses in the absence of exogenous nutrients (in carbonate buffered balanced salts solution, CBS2) after 3 hours of preincubation in CBS2 (for cell adaptation and to equilibrate soluble nutrient pools). Cells were exposed to the treatments indicated, followed by recovery (24 hours) in RPMI without serum (providing nutrient support for viable cell recovery, without serum factors for cell division). Survival is assessed by conventional luminescence measurement of ATP levels after this recovery. […] The relatively large quantitative differences in devimistat sensitivity between cell lines under exogenous nutrient deprivation are characteristic of each line (see examples below), with small experiment-to-experiment variation. […]

[5] = tested on: PANC1 cells; experiment: Glycogen content in PANC1 cells; details: PANC1, CBS2, 3 hours
Procedure: as §2
C. Comparison of endogenous glycogen stores and their devimistat-induced depletion in PANC1 and AsPC1 cells. Cells were treated in CBS2 for 3 hours with 30 μM devimistat or mock treated (FIG. 2C, left), or treated for 3 hours with the indicated devimistat doses (FIG. 2C, right). Glycogen quantitation is described in Methods, above. ** indicates p<0.01. **** indicates p<0.0001.
as §3

[6] = tested on: AsPC1 cells; experiment: CO2 release from 14C-oleic acid in AsPC1 cells; details: AsPC1, CBS2, 50 μM GPi, 40 μM oleic acid
[7] = AsPC1, 50 μM GPi, 60 μM devimistat

SMILES	sensitization to devimistat-induced cell death, agent combined with devimistat [1]	inhibition of oleic acid (OA)-driven acute ATP synthesis / OA rescue [2, 7]	glycogen consumption [3]	further results
CSc1cccc(Nc2ncc3cc(-c4c(Cl)cccc4Cl)c(=O)n(C)c3n2)c1 [PD-173955]	more limited sensitization	little or no inhibition		Devimistat synergy [1]: No; OA rescue blockade ([2]; 60 μM devimistat): No
COc1cc2c(Oc3ccc(NC(=O)C4(C(=O)Nc5ccc(F)cc5)CC4)cc3F)ccnc2cc1OCCCN1CCOCC1 [Foretinib, N1′-[3-fluoro-4-[[6-methoxy-7-(3-morpholinopropoxy)-4-quinolyl]oxy]phenyl]-N1-(4-fluorophenyl)cyclopropane-1,1-dicarboxamide]	robustly sensitize	robust inhibition		Devimistat synergy [1]: Yes; OA rescue blockade ([2]; 60 μM devimistat): Yes
[H]/N=C(/N)N/C(=N/[H])NCCc1ccccc1 [phenformin]	sensitizes AsPC1 to devimistat			
C=C(C)[C@H]1Cc2c(ccc3c2O[C@@H]2COc4cc(OC)c(OC)cc4[C@@H]2C3=O)O1 [rotenone]			induce accelerated glycogen depletion	
CN(C)C(=O)[C@H](O)[C@H](Cc1ccccc1)NC(=O)c1cc2cc(Cl)ccc2[nH]1 [CP-91149, 5-chloro-N-[(1S,2R)-3-(dimethylamino)-2-hydroxy-3-oxo-1-(phenylmethyl)propyl]-1H-indole-2-carboxamide]	Synergy observed		reduces glycogen consumption	sensitization to devimistat-induced cell death, agent combined with devimistat [4]: interacts more weakly with devimistat; glycogen consumption [5]: reduces glycogen consumption
O=C(Cc1cccc(OC(F)(F)F)c1)Nc1ccc(CCCCc2nnc(NC(=O)Cc3ccccn3)s2)nn1 [CB-839, 2-(pyridin-2-yl)-N-(5-(4-(6-(2-(3-(trifluoromethoxy)phenyl)acetamido)pyridazin-3-yl)butyl)-1,3,4-thiadiazol-2-yl)acetamide]	modest effects on devimistat sensitivity			blockade of glutamine rescue from devimistat inhibition of ATP synthesis ([2]; AsPC1, 50 μM GPi, 60 μM devimistat, 2 mM glutamine, CB-839 0.2 μM, hexachlorophene 3 μM, 4.5 hours): blockade; sensitization to devimistat-induced cell death, agent combined with devimistat [4]: modest effects on devimistat sensitivity
CCN(CCO)CCCC(C)Nc1ccnc2cc(Cl)ccc12 (stereo not drawn) [HCQ]	Synergy observed		significantly accelerates glycogen consumption	sensitization to devimistat-induced cell death, agent combined with devimistat [4]: Synergy observed; glycogen consumption [5]: significantly accelerates glycogen consumption
CC[C@H]1/C=C/C=C/C[C@@H](C)[C@H](O)[C@@](C)(O)C(=O)[C@@H](C)[C@H](O)[C@@H](C)C(=O)[C@@H](C)[C@H](O)[C@@H](C)/C=C/C(=O)O[C@@H]2[C@H](C)[C@H](CC1)O[C@]1(CC[C@H](C)[C@H](C[C@@H](C)O)O1)[C@H]2C [oligomycin]			induce accelerated glycogen depletion	
CCOC(=O)[C@@]1(CCCCCCOc2ccc(Cl)cc2)CO1 [ETX]	enhances devimistat effects	strongly inhibited		oleic acid beta-oxidation (CO2 release from oleate) [6]: block oleic acid beta-oxidation
Oc1c(Cl)cc(Cl)c(Cl)c1Cc1c(O)c(Cl)cc(Cl)c1Cl [hexachlorophene]				blockade of glutamine rescue from devimistat inhibition of ATP synthesis [2]: blockade
CNC(=O)c1c(F)cccc1Nc1nc(Nc2cc3c(cc2OC)CCN3C(=O)CN(C)C)nc2[nH]ccc12 [GSK1838705A]	more limited sensitization	little or no inhibition		Devimistat synergy [1]: No; OA rescue blockade ([2]; 60 μM devimistat): No
